Reference: PubChem BioAssay (NCI)
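Each compound was tested at five concentrations against cells in 96-well plates for 48 hours. At the GI50, growth is halved. TGI denotes the concentration required for complete inhibition of growth.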

Experiments:
Assay in all cases: growth of human tumour cells (NCI), 48 h
MCF7 breast = system: MCF7 breast
UACC-257 melanoma = system: UACC-257 melanoma
DU-145 prostate = system: DU-145 prostate
786-0 renal = system: 786-0 renal
HL-60(TB) leukemia = system: HL-60(TB) leukemia
TK-10 renal = system: TK-10 renal
PC-3 prostate = system: PC-3 prostate
HOP-92 NSCLC = system: HOP-92 NSCLC
KM20L2 colon = system: KM20L2 colon
DLD-1 colon = system: DLD-1 colon
LXFL 529 NSCLC = system: LXFL 529 NSCLC
XF 498 CNS = system: XF 498 CNS
DMS 114 small cell lung = system: DMS 114 small cell lung
DMS 273 small cell lung = system: DMS 273 small cell lung

Compound | TGI (MCF7 breast) [µM] | TGI (UACC-257 melanoma) [µM] | TGI (DU-145 prostate) [µM] | TGI (786-0 renal) [µM] | TGI (HL-60(TB) leukemia) [µM] | TGI (TK-10 renal) [µM] | TGI (PC-3 prostate) [µM] | TGI (HOP-92 NSCLC) [µM] | TGI (KM20L2 colon) [µM] | TGI (DLD-1 colon) [µM] | TGI (LXFL 529 NSCLC) [µM] | TGI (XF 498 CNS) [µM] | TGI (DMS 114 small cell lung) [µM] | TGI (DMS 273 small cell lung) [µM] | GI50 (MCF7 breast) [µM] | GI50 (DU-145 prostate) [µM] | GI50 (HL-60(TB) leukemia) [µM] | GI50 (TK-10 renal) [µM] | GI50 (PC-3 prostate) [µM] | GI50 (HOP-92 NSCLC) [µM]
C=C(C)[C@@H]1CC[C@]2(C)CC[C@]3(C)[C@H](CC[C@@H]4[C@@]5(C)CC[C@H](OC(=O)c6ccccc6)C(C)(C)[C@@H]5CC[C@]43C)[C@@H]12 | > 100 | > 100 | > 100 | > 100 | > 100 | > 100 | > 100 | > 100 |  |  |  |  |  |  |  |  |  |  |  | 
CC1SC(c2ccccc2)N(Nc2c3ccccc3nc3ccccc23)C1=O (stereo unspecified) |  | > 100 |  |  |  |  |  |  | > 100 | > 100 | > 100 | > 100 | > 100 | > 100 |  |  |  |  |  | 
COc1ccc(-c2cc(-c3ccccc3)n(C3OCC(OC(C)=O)C(OC(C)=O)C3OC(C)=O)c(=S)c2C#N)cc1 (stereo unspecified) | > 100 | > 100 | > 100 |  | > 100 | > 100 | > 100 | 53.6 |  |  |  |  |  |  |  |  |  |  |  | 
COc1ccc(NS(=O)c2ccc(-c3ccccc3)cc2)cc1 (stereo unspecified) | > 100 | > 100 | > 100 |  | > 100 | > 100 | > 100 |  |  |  |  |  |  |  |  |  |  |  |  | 
CN1CCN(c2ccc(-c3ccc4ncc(C#N)c(Nc5ccc(F)c(Cl)c5)c4c3)cc2)CC1 | 14.9 |  | 4.11 |  | 4.45 | 18.8 | 7.92 | 28.4 |  |  |  |  |  |  | 3.18 | 0.872 | 1.68 | 0.484 | 2.08 | 3.47
O=C(N/C(=C\c1ccccc1[N+](=O)[O-])c1nc2ccccc2[nH]1)c1ccccc1 |  |  |  |  |  | > 100 |  | > 100 | > 100 | > 100 | > 100 | > 100 |  | > 100 |  |  |  |  |  | 
Nc1ccc2c(c1)C1=NNC(=O)CC1C2 (stereo unspecified) | > 31.6 | > 100 |  |  | > 100 |  |  | > 100 | > 100 | > 100 |  | > 100 | > 100 | > 100 |  |  |  |  |  | 
